Series [1] addresses T1, prostaglandin I2 (prostacyclin, PGI2) binding sites (Homo sapiens, UniProt P43119). The experiment in a line: [3H]iloprost saturation binding (vacuum filtration, Scatchard analysis) on well differentiated thyroid cancer membrane fraction. As to the method:
(§1) For comparative studies saturation experi- ments were performed. […] Values are given as x +s.d. Student's t-test was employed for paired data. […] Each point represents the average of 6 separate experiments. […] Each point represents the average of 5 separate determinations.

Series [2] has as its target T1, prostaglandin I2 (prostacyclin, PGI2) binding sites. The experiment in a line: [3H]iloprost saturation binding (vacuum filtration, Scatchard analysis) on benign solitary thyroid adenoma membrane fraction.
Series [3] has the same target. The experiment in a line: [3H]iloprost saturation binding (vacuum filtration, Scatchard analysis) on normal thyroid membrane fraction. As to the method: as §1
The target in series [4] is prostaglandin I2 (prostacyclin, PGI2) binding sites. The series is described as above. Details: species or system human. Particulars: normal thyroid tissue, 4 C, 40 min, mean +/- s.d.; read-out: equilibrium dissociation constant (Kd), low affinity binding sites. As to the method:
as §1

For series [5], the target named is T1, prostaglandin I2 (prostacyclin, PGI2) binding sites. The experiment in a line: [3H]iloprost saturation binding (vacuum filtration, Scatchard analysis) on less differentiated and anaplastic thyroid cancer membrane fraction. As to the method:
as §1

On the set-up of series [6]: method as in Moncada et al., 1976. Particulars: pH 7.4; degradation to 6-oxo-PGF1a; ref Moncada et al., 1976; cited from earlier work.

Each structure is given as a SMILES string. Several values for one entry are separate records, joined by “and”; a condition that tells them apart may be missing. Equal values may be shown once.

T1 sequence (P43119 1-383): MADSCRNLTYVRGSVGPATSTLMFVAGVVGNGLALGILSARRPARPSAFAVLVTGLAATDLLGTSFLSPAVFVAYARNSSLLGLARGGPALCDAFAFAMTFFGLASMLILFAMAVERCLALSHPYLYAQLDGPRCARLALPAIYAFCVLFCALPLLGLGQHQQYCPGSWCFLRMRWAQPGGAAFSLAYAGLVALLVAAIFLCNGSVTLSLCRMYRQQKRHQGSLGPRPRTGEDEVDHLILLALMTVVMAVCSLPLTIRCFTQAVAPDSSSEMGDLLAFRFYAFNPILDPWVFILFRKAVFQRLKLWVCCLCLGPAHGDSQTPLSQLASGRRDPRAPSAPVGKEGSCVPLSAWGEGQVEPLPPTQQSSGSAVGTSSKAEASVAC

As usually defined, the Kd is the free concentration of one partner at which half of the binding sites on the other are occupied at equilibrium, for simple one-to-one binding. As for `CC#CCC(C)[C@H](O)/C=C/[C@@H]1[C@H]2C/C(=C/CCCC(=O)O)C[C@H]2C[C@H]1O` (stereo partly drawn) [[3H]iloprost, iloprost], in series [1], the Bmax is 328.9 fmol mg- 1 protein and 359.2 fmol mg- 1 protein and 253.6 fmol mg- 1 protein and 255.5 fmol mg- 1 protein and 301.2 fmol mg- 1 protein; the “Bmax, high affinity binding sites” value amounted to 299.7 ± 46.0. The “Bmax, high affinity binding sites” value in series [2] is recorded as 325.8 ± 110.0. Also, the “binding capacity (Bmax), high affinity binding sites” value in series [3] was 613.2 ± 130.4. Also, the Kd in series [4] was 132 nM. In series [5], the Bmax was 218.1 fmol mg- 1 protein and 176.0 fmol mg- 1 protein and 153.2 fmol mg- 1 protein and 165.3 fmol mg- 1 protein and 190.6 fmol mg- 1 protein; the “Bmax, high affinity binding sites” value came to 180.6 ± 25.1; the “diminution of [3H]iloprost high affinity binding sites” value is on record as roughly 70%.

Regarding `CCCCC[C@H](O)/C=C/[C@@H]1[C@H]2C/C(=C/CCCC(=O)O)O[C@H]2C[C@H]1O` [PGI2, prostaglandin I2], in series [6], the “stability in aqueous medium” value was “rapid hydrolysis”.

The values above are taken from PMC2246842, “Decrease of prostaglandin I2 binding sites in thyroid cancer” (British Journal of Cancer, 1988).
